Where a name gives a salt, the structure may show the parent alone.
Columns and labels:
[1] = Evaluation of a conversion rate to 2-acetylnaphtho[2,3-b]furan-4,9-dione in pH 7.4 phosphate buffer solution; assay type: physicochemical; conditions: Phosphate buffer solution (pH 7.4), 1 umol/L, 37° C., incubation time 120 min; dihydrochloride
Procedure, shortened: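 Compounds at 1 umol/L were incubated at 37° C in human plasma, CD1 mouse plasma or pH 7.4 phosphate buffer, sampled up to 120 minutes, acid/acetonitrile-deproteinised and analysed by LC-MS (ESI positive). Conversion (%) derived from the peak area ratio of the active form to phenytoin internal standard.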

[2] = assay type: in vivo, CD1 (ICR) mice; conditions: orally administered to mice
Description: It was then centrifuged to obtain plasma.

Solubility test = conditions: pH 2, aqueous buffer, thermodynamic from solid, Solubility in pH 2.0 buffer solution, 50 mmol/L glycine buffer solution (pH 2.0), room temperature, 24 hours shaking
Description: A water-soluble prodrug was added into 50 mmol/L glycine buffer solution (pH 2.0). After shaking at room temperature for 24 hours, the mixture was filtered through a membrane filter, and then the filtrate was measured with HPLC.
The measurement condition of HPLC is as described below. HPLC condition column: Acquity UPLC BEH C18, 1.7 um, 50×2.1 mm
Column temperature: 40° C.
Mobile phase: A: 0.1% trifluoroacetic acid-containing water

[3] = Pharmacokinetics test, intravenous administration; conditions: intravenously administered to mice
Description: For water-soluble prodrugs described in the EXAMPLES, the concentration of 2-acetylnaphtho[2,3-b]furan-4,9-dione (Activated form 1) in plasma was measured. Animal species, an administration method, a method of making standard solutions, and a method of measuring the concentration in plasma are as described below.
Animal: Seven-week-aged male CD1 (ICR) mice were used as an experimental animal.
Administration method: A test substance was weighed, and then dissolved in 50 mmol/L glycine buffered saline (pH 2.0) to produce an administration solution. The body weight of a mouse was measured, and the prepared administration solution was intravenously administered.
Blood collecting method: Heparin was added to a blood-collecting vessel, and blood was collected from a mouse. To the obtained blood, 46% of Citric acid was added in 1% volume. It was then centrifuged to obtain plasma. To the collected plasma, 1 mol/L HCl was added in 10% volume to produce a plasma sample. A sample obtained by adding 10% volume of 1 mol/L HCl to blank plasma was used as a blank sample.
Making of a standard solution: One mg of a test sample was weighed, and dissolved in 10 mL of acetonitrile using a measuring flask to make a standard solution of 100 ug/mL.
Measurement of the concentration in plasma: One hundred ug/mL of the standard solution was diluted in 50% acetonitrile solution to make calibration curve samples of target concentrations. Twenty uL of a blank sample was added to 18 uL of the calibration curve sample to make a plasma calibration curve sample. Eighteen uL of 50% acetonitrile solution was added to 20 uL of the administered plasma sample to make a sample for plasma analysis. One hundred uL of acetonitrile (containing 1% volume of 10 mol/L HCl) containing an internal standard was added to the plasma calibration curve sample and the sample for plasma analysis, respectively. It should be noted that phenytoin was used as the internal standard and its concentration was prepared in 100 nmol/L. 10 uL of each sample was analyzed with LC-MS. A calibration curve was made from a value (peak ratio) of the peak area of a test substance in MS divided by the peak area of the internal standard, and the concentrations of plasma calibration curve samples. The concentration in a sample was calculated from the peak ratio of each sample and the calibration curve.

Question: For `CC(=O)c1cc2c(OC(=O)NCCNCC(=O)O)c3ccccc3c(OC(=O)NCCNCC(=O)O)c2o1` [Example 4, 2,2′-((((((2-Acetylnaphtho[2,3-b]furan-4,9-diyl)bis(oxy))bis(carbonyl))bis(azanediyl))bis(ethane-2,1-diyl))bis(azanediyl))diacetic acid dihydrochloride], which “% Measurement value (conversion rate to 2-acetylnaphtho[2,3-b]furan-4,9-dione)” value [1] is on record?
Answer: 53%

Question: And the “concentration of 2-acetylnaphtho[2,3-b]furan-4,9-dione (Activated form 1) observed (in words)” value [2]?
Answer: high concentration

Question: What about the solubility at 24 hours (Solubility test) of the same compound?
Answer: > 5000 µg/mL

Question: And the “production of 2-acetylnaphtho[2,3-b]furan-4,9-dione (Activated form 1) (in words)” value [3]?
Answer: rapidly produced

From patent US10800752B2, “Substituted naphtho[2,3-b]furans as water-soluble prodrugs for preventing and/or treating cancer” (BOSTON BIOMEDICAL, INC., priority 2015, dated 2020)
